Data: patent publication US8962558B2, “Methods for reducing GnRH-positive tumor cell proliferation using the GnRH antagonist IN3” (priority 1997, dated 2015)
Square brackets hold non-standard residues; d marks the D form. Peptide text beside a SMILES is read from it. * marks the point of attachment. dPhe(4-NHCONH2) = NC(=O)Nc1ccc(C[C@@H](N)C(=O)O)cc1; Dihydroorotyl(S) = O=C1C[C@@H](C(=O)*)NC(=O)N1; d(hArg(Et2)) = CCN=C(NCC)NCCCC[C@@H](N)C(=O)O; dPhe(4-NH2) = Nc1ccc(C[C@@H](N)C(=O)O)cc1; hArg(Et2) = CCN=C(NCC)NCCCC[C@H](N)C(=O)O; dPhe(4-Cl) = N[C@H](Cc1ccc(Cl)cc1)C(=O)O; Phe(4-NH2) = Nc1ccc(C[C@H](N)C(=O)O)cc1; d2Nal = N[C@H](Cc1ccc2ccccc2c1)C(=O)O; Lys(iPr) = CC(C)NCCCC[C@H](N)C(=O)O; NMeY = CN[C@@H](Cc1ccc(O)cc1)C(=O)O; d3Pal = N[C@H](Cc1cccnc1)C(=O)O

Tests used:
[1] = system: human glioblastoma cell lines U-87MG or U-373MG, Kaposi sarcoma cell lines KSY-1 or KS-SLK, malignant melanoma cell line MV3 or BLM, medulloblastoma cell line …; test: Proliferation assay on cell cultures (Example 3); type: cell-based; conditions: for anti-proliferative effects in tumor cells: cell lines of Example 3 treated with the substance; for anti-proliferative effect compared with Cetrorelix only: given additionally as a second GnRH antagonist
Description: A human cell line, such as the well known human glioblastoma cell lines U-87MG or U-373MG (Pinski et al., supra), or a human cell line such as the well known Kaposi sarcoma cell lines KSY-1 or KS-SLK (Parkash et al., 1996, New England Journal of Medicine, 335, 17, 1261-1269), or a human cell line such as the well known human malignant melanoma cell line MV3 or BLM (Goldbrunner, R. H., et al., 1996, Anticancer Research 16 (6B), 3679-87), or a human medulloblastoma cell line such as the well known cell line Daoy or D283 MED (Stockhammer et al., 1995, J. Neurosurgery, 83, 672-681), or human meningeoma cell cultures (Boyle-Wash, E., et al., 1995, Journal of Endocrinology, 145, 155-161), are cultured as previously described for the above-mentioned cell lines and then treated with a concentration of the GnRH agonist Triptorelin®, GnRH antagonist SB-75 (Cetrorelix®) or GnRH antagonist Ramorelix®. […]
In another embodiment, the above-mentioned cell lines are treated as described by Emons, G., et al., 1993, supra, and Irmer, G., 1995, supra, with a concentration of the GnRH peptide antagonist Ac-D-Nal(2)-D-4-ClPhe-D-Pal-Ser-1-MePal-D-IsopropylLys-Leu-IsopropylLys-Pro-D-AlaNH2 (also known as Ant 135-25; the Mepal portion is known as 1-Methyl-3-[3′-pyridyl]-alanine), Teverelix (also known as Antarelix®), Cetrorelix (also known as Cetrotide®), Abarelix (also known as Plenaxis®), D-63153 (also known as Ozarelix®), acyline, azaline B, antide (also known as Iturelix®), Degarelix (FE200486), Ganirelix, Nal-Glu, Orntide (also known as Ornirelix®), Elagolix, or with antagonist peptidomimetic ((2S)-2-[5-[2-(2-azabicyclo[2,2,2]oct-2-yl)-1,1-dimethyl-2-oxoethyl]-2-(3,5-dimethylphenyl)-1H-indol-3-yl]-N-(2-pyridin-4-ylethyl-)propan-1-amine (also known as “IN3”).
In another embodiment, the cell lines used above were each additionally treated with a second GnRH antagonist, namely one of the GnRH antagonists Cetrorelix®, Ant 135-25, IN3, degarelix, Antarelix®, Antide®, and Ramorelix® or alternatively with one of the GnRH antagonists that have been disclosed in U.S. Pat. Nos. 6,939,88, 6,200,957, 5,296,468, 4,851,385, 7,361,633, 7,288,517, WO/2009/106597 or PCT/EP2009/052326, U.S. Pat. Nos. 5,480,969, 5,198,533, or UK Patent GB 2 246782 B, wherein these additional treatment procedures were carried out in a manner similar to those reported in Emons et al., supra, using SB 75 (Cetrorelix®). […]

[2] = system: small cell lung carcinoma cell lines NCI-H1688, NCI-H1417, NCI-H1672, NCI-H1836, DMS-79, DM-553, DMS-114, SW-1271, NCI-H2227, NCI-HI1963, SHP-77 and H-69 AR; test: Proliferation assay on small cell lung carcinoma cell lines (Example 3); type: cell-based, human; conditions: small cell lung carcinoma cell lines treated with the substance
Description: In another embodiment, the small cell lung carcinoma cell lines NCI-H1688, NCI-H1417, NCI-H1672, NCI-H1836, DMS-79, DM-553, DMS-114, SW-1271, NCI-H2227, NCI-HI1963 and SHP-77 in addition to the multidrug-resistant small cell lung carcinoma cell line H-69 AR, are cultured as described above and then treated as described by Emons, G., et al., 1993, supra, and Irmer, G., 1995, supra, with various concentrations of the GnRH agonists (D-Lys6)-GnRH, Lutrelin, Histrelin, Nafarelin, Azagly-Nafarelin, Deslorelin, Cystorelin, Decapeptyl, Gonadorelin, GnRH, D-Lys(6)-GnRH II, Lamprey GnRH II, (D-Lys6)-Lamprey GnRH, (D-Lys6)-Lamprey GnRH II and Lamprey GnRH III.
In another embodiment, the small cell lung carcinoma cell lines NCI-H1688, NCI-H1417, NCI-H1672, NCI-H1836, DMS-79, DM-553, DMS-114, SW-1271, NCI-H2227, NCI-HI1963 and SHP-77 in addition to the multidrug-resistant small cell lung carcinoma cell line H-69 AR, are cultured as described above for the above-mentioned cell lines, and then treated as described by Emons, G., et al., 1993, supra, and Irmer, G., 1995, supra, with a concentration of the GnRH antagonist Cetrorelix (also known as Cetrotide®) or with a GnRH peptide antagonist Ac-D-Nal(2)-D-4-ClPhe-D-Pal-Ser-1-MePal-D-IsopropylLys-Leu-IsopropylLys-Pro-D-AlaNH2 wherein Mepal is 1-Methyl-3-[3′-pyridyl]-alanine or Ant 135-25 (also known as Ac-D-Nal(2)-D-4-Cl-Phe-D-Pal-Ser-1-MePal-D-IsopropylLys-Leu-IsopropylLys-Pro-D-AlaNH2), Teverelix (also known as Antarelix®), Cetrorelix (also known as Cetrotide®), Abarelix (also known as Plenaxis®), D-63153 (also known as Ozarelix®), acyline, azaline B, antide (also known as Iturelix®), Degarelix (FE200486), Ganirelix, Nal-Glu, Orntide (also known as Ornirelix®) or with antagonist peptidomimetic ((2S)-2-[5-[2-(2-azabicyclo[2,2,2]oct-2-yl)-1,1-dimethyl-2-oxoethyl]-2-(3,5-dimethylphenyl)-1H-indol-3-yl]-N-(2-pyridin-4-ylethyl-)propan-1-amine (also known as “IN3”).

SMILES | anti-proliferative effects in tumor cells [1] | anti-proliferative effects in tumor cells [2] | anti-proliferative effect compared with Cetrorelix only [1]
CC(=O)N[C@H](Cc1ccc2ccccc2c1)C(=O)N[C@H](Cc1ccc(Cl)cc1)C(=O)N[C@H](Cc1cccnc1)C(=O)N[C@@H](CO)C(=O)N(C)[C@@H](Cc1ccc(O)cc1)C(=O)N[C@H](CC(N)=O)C(=O)N[C@@H](CC(C)C)C(=O)N[C@@H](CCCCNC(C)C)C(=O)N1CCC[C@H]1C(=O)N[C@H](C)C(N)=O [Abarelix] (Ac-[d2Nal][dPhe(4-Cl)][d3Pal]S[NMeY][dN]L[Lys(iPr)]P[dA]-NH2) | Significant anti-proliferative effects | Significant anti-proliferative effects | –
CC(C)C[C@H](NC(=O)[C@@H](Cc1c[nH]c2ccccc12)NC(=O)[C@H](Cc1ccc(O)cc1)NC(=O)[C@H](CO)NC(=O)[C@H](Cc1c[nH]c2ccccc12)NC(=O)[C@H](Cc1c[nH]cn1)NC(=O)[C@@H]1CCC(=O)N1)C(=O)N[C@@H](CCCNC(=N)N)C(=O)N1CCC[C@H]1C(=O)NCC(N)=O [Decapeptyl] | – | Significant anti-proliferative effects | –
CC(=O)N[C@H](Cc1ccc2ccccc2c1)C(=O)N[C@H](Cc1ccc(Cl)cc1)C(=O)N[C@H](Cc1cccnc1)C(=O)N[C@@H](CO)C(=O)N[C@@H](Cc1ccc(NC(=O)[C@@H]2CC(=O)NC(=O)N2)cc1)C(=O)N[C@H](Cc1ccc(NC(N)=O)cc1)C(=O)N[C@@H](CC(C)C)C(=O)N[C@@H](CCCCNC(C)C)C(=O)N1CCC[C@H]1C(=O)N[C@H](C)C(N)=O [Degarelix] (Ac-[d2Nal][dPhe(4-Cl)][d3Pal]S[Phe(4-NH2)](Dihydroorotyl(S))[dPhe(4-NHCONH2)]L[Lys(iPr)]P[dA]-NH2) | Significant anti-proliferative effects | Significant anti-proliferative effects | significantly stronger anti-proliferative effect
CCNC(=O)[C@@H]1CCCN1C(=O)[C@H](CCCN=C(N)N)NC(=O)[C@H](CC(C)C)NC(=O)[C@@H](Cc1c[nH]c2ccccc12)NC(=O)[C@H](Cc1ccc(O)cc1)NC(=O)[C@H](CO)NC(=O)[C@H](Cc1c[nH]c2ccccc12)NC(=O)[C@H](Cc1cnc[nH]1)NC(=O)[C@@H]1CCC(=O)N1 [Deslorelin] | Significant anti-proliferative effects | Significant anti-proliferative effects | –
COc1cccc(-c2c(C)n(Cc3c(F)cccc3C(F)(F)F)c(=O)n(C[C@H](NCCCC(=O)O)c3ccccc3)c2=O)c1F [Elagolix, 4-[[(1R)-2-[5-(2-Fluoro-3-methoxyphenyl)-3-[[2-fluoro-6(trifluoromethyl)phenyl]methyl]-3,6-dihydro-4-methyl-2,6-dioxo-1(2H)-pyrimidinyl]-1-phenylethyl]amino]butanoic acid] | Significant anti-proliferative effects | – | –
CCN=C(NCC)NCCCC[C@H](NC(=O)[C@H](CC(C)C)NC(=O)[C@@H](CCCCNC(=NCC)NCC)NC(=O)[C@H](Cc1ccc(O)cc1)NC(=O)[C@H](CO)NC(=O)[C@@H](Cc1cccnc1)NC(=O)[C@@H](Cc1ccc(Cl)cc1)NC(=O)[C@@H](Cc1ccc2ccccc2c1)NC(C)=O)C(=O)N1CCC[C@H]1C(=O)N[C@H](C)C(N)=O [Ganirelix] (Ac-[d2Nal][dPhe(4-Cl)][d3Pal]SY[d(hArg(Et2))]L[hArg(Et2)]P[dA]-NH2) | Significant anti-proliferative effects | Significant anti-proliferative effects | –
CC(C)C[C@H](NC(=O)CNC(=O)[C@H](Cc1ccc(O)cc1)NC(=O)[C@H](CO)NC(=O)[C@H](Cc1c[nH]c2ccccc12)NC(=O)[C@H](Cc1cnc[nH]1)NC(=O)[C@@H]1CCC(=O)N1)C(=O)N[C@@H](CCCNC(=N)N)C(=O)N1CCC[C@H]1C(=O)NCC(N)=O [Gonadorelin] | Significant anti-proliferative effects | Significant anti-proliferative effects | –
CCNC(=O)[C@@H]1CCCN1C(=O)[C@H](CCCNC(=N)N)NC(=O)[C@H](CC(C)C)NC(=O)[C@@H](Cc1cn(Cc2ccccc2)cn1)NC(=O)[C@H](Cc1ccc(O)cc1)NC(=O)[C@H](CO)NC(=O)[C@H](Cc1c[nH]c2ccccc12)NC(=O)[C@H](Cc1cnc[nH]1)NC(=O)[C@@H]1CCC(=O)N1 [Histrelin] | Significant anti-proliferative effects | Significant anti-proliferative effects | –
Cc1cc(C)cc(-c2[nH]c3ccc(C(C)(C)C(=O)N4CC5CCC4CC5)cc3c2[C@H](C)CNCCc2ccncc2)c1 [IN3, (2S)-2-[5-[2-(2-azabicyclo[2,2,2]oct-2-yl)-1,1-dimethyl-2-oxoethyl]-2-(3,5-dimethylphenyl)-1H-indol-3-yl]-N-(2-pyridin-4-ylethyl-)propan-1-amine] | Significant anti-proliferative effects | Significant anti-proliferative effects | significantly stronger anti-proliferative effect
CCNC(=O)[C@@H]1CCCN1C(=O)[C@H](CCCN=C(N)N)NC(=O)[C@H](CC(C)C)N(C)C(=O)[C@@H](Cc1c[nH]c2ccccc12)NC(=O)[C@H](Cc1ccc(O)cc1)NC(=O)[C@H](CO)NC(=O)[C@H](Cc1c[nH]c2ccccc12)NC(=O)[C@H](Cc1cnc[nH]1)NC(=O)[C@@H]1CCC(=O)N1 [Lutrelin] | Significant anti-proliferative effects | Significant anti-proliferative effects | –
CC(=O)Nc1ccc(C[C@H](NC(=O)[C@H](CO)NC(=O)[C@@H](Cc2cccnc2)NC(=O)[C@@H](Cc2ccc(Cl)cc2)NC(=O)[C@@H](Cc2ccc3ccccc3c2)NC(C)=O)C(=O)N[C@H](Cc2ccc(NC(C)=O)cc2)C(=O)N[C@@H](CC(C)C)C(=O)N[C@@H](CCCCNC(C)C)C(=O)N2CCC[C@H]2C(=O)N[C@H](C)C(N)=O)cc1 [acyline] (Ac-[d2Nal][dPhe(4-Cl)][d3Pal]S[Phe(4-NH2)](Ac)[dPhe(4-NH2)](Ac)L[Lys(iPr)]P[dA]-NH2) | Significant anti-proliferative effects | Significant anti-proliferative effects | –
